melting point	SMILES
176 to 178 °C	Cc1cc2c(cc1N1CCc3ccccc31)OC(=O)C2C (stereo not drawn)
209 to 212 °C	CCOC(=O)CNC(=O)Nc1ccc(C(=O)/C=C/c2ccc(-c3cccs3)cc2)cc1
117 to 118 °C	NCc1cccc(OCc2nc(-c3ccc(Cl)cc3)cs2)c1
246 to 248 °C	Cc1cc2ncc(C(=O)O)c(N(C)S(=O)(=O)c3ccc(Oc4ccncc4)cc3)n2n1
112 °C	COC(=O)CCCc1cc2nc(Cl)ccc2n1S(=O)(=O)c1cccc2nsnc12
132 to 133 °C	CCOC(=O)c1c(CCl)nc2sc3c(c2c1-c1ccc(OC)c(OC)c1)CCN(C(=O)c1ccc(Cl)cc1)C3
148 to 151 °C	CCN(CC)CCOc1ccc2[nH]c3c([N+](=O)[O-])ccc(Cl)c3c(=O)c2c1
119 to 122 °C	CCc1cc2c(s1)-c1ccccc1C(CC)N2S(=O)(=O)c1ccc(O)cc1 (stereo not drawn)
159 to 160 °C	COc1cc(-n2nc(C(F)(F)F)cc2-c2ccc(S(C)(=O)=O)cc2)ccc1F
232 to 233 °C	CC(C)Cn1c(CNC(=O)OC(C)(C)C)c(-c2ccccc2F)c2cc(C(N)=O)ccc2c1=O
155 to 157 °C	C#CC[C@@H](NC(=O)OC(C)(C)C)c1nc2cc(Cl)ccc2c(=O)n1Nc1ccccc1
185 to 186 °C	COc1ccc(N2CCN(CCC3OCCc4c(C(N)=O)cccc43)CC2)cc1 (stereo not drawn)
94 to 97 °C	Cc1cc(-c2ccc(C(F)(F)F)cc2)nc(S(C)(=O)=O)n1
118 to 119 °C	CCOC(Cc1ccc(OCCn2c(=O)sc3cc(C(=O)c4ccccc4)ccc32)cc1)C(=O)OC (stereo not drawn)
132 to 136 °C	Cc1[nH]c(-c2ccccc2)c(NC(C)C)c1C(=O)c1ccccc1
103 to 104 °C	CCN1C(=O)SC(Cc2ccc(N)cc2)C1=O (stereo not drawn)
87 to 88.5 °C	COC(=O)NC(Cc1ccccc1)C1CC(Cc2ccccc2)=NO1 (stereo not drawn)
135 to 136 °C	CC(CC(=O)O)CC(=O)Nc1cccc(-c2ccnc3c(C(=O)c4cccs4)cnn23)c1 (stereo not drawn)
174 to 175 °C	CCOP(=O)(/C=C/c1cn(-c2ccccc2)nc1OCc1ccc(OCc2nc(-c3cccc(CC(=O)O)c3)oc2C)c(OC)c1)OCC
68 to 70 °C	N#Cc1ccc(OCc2ccc3c(c2)OCO3)cc1OC(C(=O)O)c1ccccc1 (racemic)
176 to 178 °C	COc1nnc(-c2cc3c([nH]c2=O)CCN(Cc2ccccc2)C3)o1
137 to 138 °C	COc1ccc(CN2C(=O)[C@H](NC(=O)COc3ccccc3)[C@@H]2c2ccccc2C2OCCO2)c(OC)c1 (relative stereo)
179 to 180 °C	N=C(Nc1ccccc1)Nc1nc(-c2ccccc2)cs1
230 to 231 °C	O=C(NCc1cccc(O)c1)c1[nH]c2ccc(Cl)cc2c1S(=O)(=O)c1cccc(Cl)c1
220 to 225 °C	CC(=O)Oc1c(C(=O)N2CCc3ccccc32)c(=O)n2c3c(cc(N)cc13)OCC2
120 °C	CCC(O)C(O)c1ccc(OCc2ccc3ccccc3c2)c(OC)c1 (stereo not drawn)
205 to 206 °C	COC(=O)c1c(-c2cc(OC)c(OC)c(OC)c2)c2cc(OC)c(OCc3cccs3)cc2c(=O)n1-c1ccc(N)cc1
158 to 160 °C	CCCCC(=O)c1c(-c2ccc3cc(OCC(=O)O)ccc3c2)oc2ccc(Cl)cc12
264 to 267 °C	CN(C)C(=O)c1cc(-c2ccccc2)c(=O)[nH]c1-c1c(Cl)cccc1C#N
191 to 193 °C	COc1cc(OC)cc(N2CCN(C(=O)Nc3cc4ccccc4cc3OC)CC2)c1

The next lines start with the molecule.

SMILES	melting point
CCC(=O)NCCc1c[nH]c2ccc3c(c12)CCCO3	106 to 107 °C
CCN=C1SC(=CC(=O)O)C(=O)N1CC	148 to 152 °C
CC(=O)c1c(C)c(NC=O)c(C)c2c1OCC2c1ccc(C(C)C)cc1 (stereo not drawn)	177 to 179 °C
C[Si](C)(C)CCOCn1ccc2c(=O)[nH]ncc21	147 to 148 °C
COC(=O)c1cc(C(C)OC(C)C)c(C(F)(F)F)cc1N (stereo not drawn)	87 to 90 °C
CC1=CC(O)C(OC(=O)c2ccco2)C(C)(C)CC1=O (stereo not drawn)	102 to 104 °C
CCCCCCCCCCCCNC(=O)OCc1ccc(OC(C)=O)c(OC)c1	54 to 56 °C
CC(C)(C)ONC(=O)C(C)(C)CCOc1ccc(C2=NNC(=O)CC2)cc1Cl	133 to 135 °C
C[C@H](O)C(=O)Nc1c(C(=O)c2cc(CO)co2)[nH]c2cc(Cl)ccc12	213 to 214 °C
Cc1ccc2nc(CCl)nc(Cl)c2c1	111 to 112 °C
COc1ccc(CNc2ncnc3c2ncn3C2OC(CNC(C)=O)C(O)C2O)cc1 (stereo not drawn)	121 to 122 °C
NC(=O)c1cc2c(cc1OCC1CCCCC1)CCCCC2N (stereo not drawn)	170 to 172 °C
CCCc1c(OCCCCCc2c(Cl)ccc(OC)c2OC)ccc(C(=O)O)c1O	140 to 142 °C
Nc1nc(-c2cc(Cl)ccc2Cl)nc(N2CCC(=O)CC2)n1	223 to 225 °C
c1c(N2CCC3(CC2)OCCO3)nc(N2CCNCC2)nc1N1CCC2(CC1)OCCO2	122 to 126 °C
COc1cc2c(cc1OC)/C(=C\c1ccc(OP(=O)(O)O)cc1)C(=O)N2	218 to 220 °C
CCCCCCCN(CCc1ccc(OC(C)(C)C(=O)O)cc1)C(=O)Nc1ccc(OC)cc1OC	95 to 96 °C
O=C(Nc1ccc(S(=O)(=O)Nc2ncccn2)cc1)c1ccccc1SSc1ccccc1C(=O)Nc1ccc(S(=O)(=O)Nc2ncccn2)cc1	280 °C
Cc1ccc(S(=O)(=O)C=C(Cl)C#N)cc1	78 °C

SMILES	melting point
CN(c1ccc(C(=O)O)cc1)c1cc2c3c(c1)CCCC3CCC2	288 to 289 °C
CCc1ccc(N2CCN(Cc3c[nH]c4ncccc34)CC2)cc1	216 to 217 °C
CC(C)(C)c1cc(=S)cc(C(C)(C)C)s1	162 °C
Cc1cnc2c(NC(=O)c3c(Cl)cccc3Cl)ccc(C)c2c1Cl	236 to 240 °C
Cc1c(SCCCCl)ccnc1CSc1nc2cc(F)ccc2[nH]1	188 to 191 °C
CC(=O)Nc1ncc(CCc2ccc(NC(NC(=O)OC(C)(C)C)NC(=O)OC(C)(C)C)cc2)s1	203 to 205 °C
COc1cc2c(c3c1OC(C)(C)C3)C(c1ccnc(-n3c(=O)cc(C)c4ccccc43)c1)=NC(C)(C)C2	218 to 219 °C
N#CC(C#N)=CN(N=C(C#N)C#N)c1cccc(Cl)c1	113 to 115 °C
CC(=O)Nc1cccc(C=O)c1	68 to 70 °C
COc1ccc(C=CCCCCCC(=O)O)cc1	42 to 43 °C
Cc1ccnc2c1C(=O)c1nccc(Cl)c1C2=O	> 300 °C
c1ccc(C(CCOc2ccc(CCC3=NCCCO3)cc2)(c2ccccc2)c2ccccc2)cc1	60 to 63 °C
COc1cc(C(=O)O)ccc1Cn1nc(O)c2ccc(NC(=O)CC3CCCC3)cc21	269 to 272 °C
CCCCOc1nc(NC(C)=O)nc2ccc(Cl)nc12	158 to 159 °C
CCN1CCCC1CNC(=O)c1cc(S(=O)(=O)CC)cc2c1OCCO2 (stereo not drawn)	111 to 122 °C
O=C1C[C@@H](O)C[C@H](CCc2c(Cl)cc(Cl)cc2OCc2ccc(F)cc2)O1	133 to 135 °C
CCCCCCCCCCCc1ccc(CCCC(N)(CO)CCO)cc1 (stereo not drawn)	73 to 76 °C
CC(=O)SCCCc1ccc(C2OCC(C)(C)CO2)cc1	44 °C
C[C@@H](O)CCN1CCC(c2noc3cc(F)ccc23)CC1	82 to 84 °C

From a melting point compilation (Tetko et al.; mined from patent text by program, amines drawn as free bases though some values may be those of a salt)
